Test system: G. duodenalis BRIS/91/HEPU/1279
Assay: Primary Giardia screen at 10 µM (live-cell imaging, automated counting)
Type: cell-based, Giardia duodenalis
Details: 24 h
Procedure, shortened: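 Compound added to 10 μM final in medium with 0.2% DMSO, one well each; plates then held in sealed chambers at 3% O2, 5% CO2 in N2; growth imaged and counted automatically at 24 and 48 h; values normalised to vehicle wells minus media blank.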

Row | SMILES | Average % Inhibition 24h [%]
1 | O=C(NCC1(c2ccccc2)CCOCC1)c1ccc(Br)cc1 [SN00783501] | 8.8
2 | Fc1cccc(Nc2c3c(nc4ccccc24)CCC3)c1 [SN00784170] | 2.3

Same assay, conditions: 24 h, first singlicate assay

Row | SMILES | % Inhibition n=1 24h [%]
3 | O=C(NCC1(c2ccccc2)CCOCC1)c1ccc(Br)cc1 [SN00783501] | 16.8
4 | Fc1cccc(Nc2c3c(nc4ccccc24)CCC3)c1 [SN00784170] | 4.6

Same assay, conditions: 24 h, re-assessment

Row | SMILES | % Inhibition n=2 24h [%]
5 | O=C(NCC1(c2ccccc2)CCOCC1)c1ccc(Br)cc1 [SN00783501] | 0.9
6 | Fc1cccc(Nc2c3c(nc4ccccc24)CCC3)c1 [SN00784170] | 0.0

Same assay, conditions: 48 h

Row | SMILES | Average % Inhibition 48h [%]
7 | O=C(NCC1(c2ccccc2)CCOCC1)c1ccc(Br)cc1 [SN00783501] | 37.7
8 | Fc1cccc(Nc2c3c(nc4ccccc24)CCC3)c1 [SN00784170] | 55.5

Same assay, conditions: 48 h, first singlicate assay

Row | SMILES | % Inhibition n=1 48h [%]
9 | CC(c1nnc(-c2cccs2)o1)N1CCc2cncnc2C1 (centres unmarked) [SN00783267] | 12.9
10 | CCc1ncc2c(n1)CN(Cc1nc(-c3ccco3)oc1C)CC2 [SN00783272] | 0.0
11 | Cc1ncccc1CNCC1CN(C2CC2)CCO1 (centres unmarked) [SN00783283] | 14.5
12 | CS(=O)(=O)c1nccn1Cc1ccccn1 [SN00783289] | 1.6
13 | Cc1sc(=O)n(CCC(=O)N2CCC(C)CC2c2ccco2)c1C (centres unmarked) [SN00783298] | 0.0
14 | CC(=O)C1=C(C)NC(=O)NC1c1ccc(Cl)cc1 (centres unmarked) [SN00783317] | 2.8
15 | NC(=O)c1nn2c(C(F)(F)F)cc(-c3ccccc3)nc2c1Br [SN00783344] | 38.7
16 | CN(C)c1nc(N(C)C)nc(N2CC(=O)N(c3ccc(Cl)c(Cl)c3)C2=N)n1 [SN00783378] | 16.0
17 | Cc1cc(C(F)(F)F)nn1CC(=O)Nc1cc(Oc2cccnc2)cc([N+](=O)[O-])c1 [SN00783379] | 22.1
18 | O=C(NCC1(c2ccccc2)CCOCC1)c1ccc(Br)cc1 [SN00783501] | 61.1
19 | CCOC(=O)c1sc2nc(C)nc(N3CCCCC3C)c2c1C (centres unmarked) [SN00783508] | 0.0
20 | COc1cc(C(=O)NCC2(c3ccccc3)CCOCC2)cc(OC)c1OC [SN00783529] | 6.5
21 | CC(=O)Oc1ccc(C(=O)Nc2ccc3nc(-c4ccc(Cl)cc4)oc3c2)cc1 [SN00783571] | 0.0
22 | CC1=NN(C(=O)COc2ccc(C)c(C)c2)C(O)(C(F)(F)F)C1 (centres unmarked) [SN00783577] | 0.0
23 | CC(NC(=O)Cn1nc(-c2ccccc2)c2ccccc2c1=O)c1ccccc1 (centres unmarked) [SN00783639] | 3.0
24 | O=C(O)c1cccc(Nc2nc(Nc3ccccc3)nc(N3CCCC3)n2)c1 [SN00783666] | 0.3
25 | Cc1cc(Cl)ccc1OCCCC(=O)Nc1nc2ccccc2[nH]1 [SN00783684] | 27.8
26 | Cc1ccc(-c2cc(C(=O)N3CC(C)CC(C)C3)c3ccccc3n2)o1 (centres unmarked) [SN00783691] | 7.2
27 | Cc1c(CN(C)C(=O)c2cc3nc(-c4cccs4)cc(C(F)(F)F)n3n2)cnn1C [SN00783696] | 0.0
28 | Cc1ccc(-c2cc(C(=O)NCc3cn(C)nc3C)c3ccccc3n2)cc1C [SN00783737] | 0.0
29 | CCCNC(=O)c1cnn2c(C(F)F)cc(-c3ccc(C)cc3)nc12 [SN00783826] | 40.8
30 | Cc1ccc(-c2cc(C(F)F)n3ncc(C(=O)NCc4cnn(C)c4C)c3n2)cc1 [SN00783829] | 0.0
31 | CCn1cc(CN(C)C(=O)c2cnn3c(C(F)F)cc(-c4ccc(OC)cc4)nc23)c(C)n1 [SN00783837] | 29.0
32 | Cc1coc(C)c1C(=O)CC1(O)C(=O)Nc2ccccc21 (centres unmarked) [SN00783840] | 0.0

Row | SMILES | % Inhibition n=1 48h [%]
33 | CCOC(=O)c1c(NC(=O)CN2C(=O)COc3ccc(Cl)cc32)sc2c1CCCC2 [SN00783847] | 26.0
34 | CCCN(c1ccccc1C(=O)O)S(=O)(=O)c1ccc2[nH]c(=O)[nH]c2c1 [SN00783856] | 12.1
35 | COc1ccc(OCCn2c(NC(=O)c3ccc(OC)cc3)nc3ccccc32)cc1 [SN00783884] | 19.5
36 | O=C(Cn1cnc([N+](=O)[O-])n1)NCCc1ccccc1 [SN00783937] | 33.8
37 | COc1ccc(C2NC(C(=O)O)Cc3c2[nH]c2ccccc32)c(OC)c1 (centres unmarked) [SN00783957] | 5.0
38 | CCOc1cc2c(cc1OCC)-n1cccc1C(c1cccc([N+](=O)[O-])c1)NC2 (centres unmarked) [SN00783996] | 10.3
39 | COc1cc(CNCCNC(=O)c2nonc2N)ccc1OCc1ccc(F)cc1 [SN00784068] | 0.0
40 | COC(=O)C1=C(C)N(C(C)C)C(=O)C1(NC(=O)C1CCCCC1)C(F)(F)F (centres unmarked) [SN00784094] | 0.0
41 | COc1cccc(C(=O)NC2(C(F)(F)F)C(=O)N(Cc3ccccc3)C(C)=C2C(C)=O)c1 (centres unmarked) [SN00784101] | 2.9
42 | CN(CCc1ccccn1)C(=O)c1cc2nc(-c3ccc(Cl)cc3)cc(C(F)(F)F)n2n1 [SN00784121] | 0.0
43 | O=C(Nc1cccc(C(F)(F)F)c1)c1cnn2c(C(F)(F)F)cc(-c3ccco3)nc12 [SN00784128] | 9.2
44 | Fc1cccc(Nc2c3c(nc4ccccc24)CCC3)c1 [SN00784170] | 66.2
45 | CCCCN(CCCNC(=O)c1c(C)oc2nc[nH]c(=O)c12)Cc1ccccc1 [SN00784186] | 16.8
46 | CN1C(=O)c2cc(NC(=O)c3ccc4c(c3)OCO4)ccc2N2CCN=C12 [SN00784190] | 31.6
47 | Fc1ccc(-c2cc(C(F)(F)F)nc(NCc3ccco3)n2)cc1 [SN00784252] | 2.3
48 | CCOC(=O)N1CCN(c2nc(-c3cccs3)cc(C(F)(F)F)n2)CC1 [SN00784268] | 21.6
49 | CC(C)CCNC(=O)C1CCCCN1S(=O)(=O)c1ccc(F)cc1 (centres unmarked) [SN00784282] | 5.5
50 | O=C(NCCCN1CCCCC1)c1cc(-c2cccs2)nc2ccccc12 [SN00784290] | 13.3
51 | O=c1c2cccnc2n(Cc2cc(=O)n3ccccc3n2)c(=O)n1CCc1ccccc1 [SN00784337] | 7.3
52 | CCOc1ccc(NS(=O)(=O)c2cc(C(=O)Nc3cc(C)ccc3C)[nH]n2)cc1 [SN00784397] | 15.3
53 | Cc1ccc2c(=O)c(C(=O)N3CCSCC3)c[nH]c2n1 [SN00784417] | 11.0
54 | CCCNC(=O)c1cc(-c2ccc(F)cc2)on1 [SN00784460] | 0.0
55 | COc1ccc(CCNC(=O)c2cc(-c3cccs3)on2)cc1OC [SN00784489] | 33.2
56 | O=C(Nc1cccc(O)c1)c1cc(-c2cccnc2)on1 [SN00784502] | 24.5

Row | SMILES | % Inhibition n=1 48h [%]
57 | O=C(NCc1ccc(Cl)cc1)c1noc2c1CCCC2 [SN00784503] | 0.0
58 | O=C1C2C(c3ccc(F)cc3)NC(Cc3ccccc3)(C(=O)O)C2C(=O)N1c1ccc(F)cc1 (centres unmarked) [SN00784528] | 0.7
59 | COc1ccc(-c2nc3sccn3c2Nc2ccc3c(c2)OCO3)cc1 [SN00784546] | 0.0
60 | CC(C)CCNC(=O)C1(C)CCC(=O)N1CCCN1CCN(c2cccc(Cl)c2)CC1 (centres unmarked) [SN00784585] | 25.4
61 | Cc1ccc(CNC(=O)C2(S(=O)(=O)c3ccc(Cl)cc3)CC2)cc1 [SN00784605] | 11.5
62 | O=C(N1CCN(c2cccc(Cl)c2)CC1)C1(S(=O)(=O)c2ccc(Cl)cc2)CC1 [SN00784607] | 0.0
63 | CCOc1ccc(-n2c(=O)c3c4c(sc3n(Cc3cccnc3)c2=O)CCC4)cc1 [SN00784617] | 0.0
64 | COc1ccc(N2C(=O)NC3CC2(C)Oc2ccc(OC)cc23)cc1 (centres unmarked) [SN00784647] | 11.2
65 | COc1cc(C(=O)N2C(=O)N(c3ccc(F)cc3)C3(C)CC2c2ccccc2O3)cc(OC)c1OC (centres unmarked) [SN00784661] | 3.1
66 | CC12CC(c3ccccc3O1)N(C(=O)c1cccc(F)c1)C(=O)N2c1ccccc1 (centres unmarked) [SN00784677] | 0.0
67 | Clc1ccc(Nc2nc3ccccc3n3nnnc23)cc1 [SN00784679] | 4.0
68 | Cc1cccc(NC(=O)CN2CC(c3ccccc3)CC2=O)c1 (centres unmarked) [SN00784702] | 10.4
69 | Cc1ccc(NC(=O)CN2CC(c3ccccc3)CC2=O)c(C)c1 (centres unmarked) [SN00784704] | 6.2
70 | O=C(NCCc1ccccc1)c1ccc(Nc2nc3ccccc3n3nnnc23)cc1 [SN00784739] | 8.5
71 | Cc1ccc(S(=O)(=O)Nc2cc3c(cc2NCc2ccccc2)n(C)c(=O)n3C)cc1 [SN00784759] | 14.3
72 | COc1ccc(S(=O)(=O)Nc2cc3c(cc2NCc2ccccc2)n(C)c(=O)n3C)cc1OC [SN00784765] | 14.1
73 | O=C(Nc1ccccc1)NC(c1ccccc1)c1nnc(-c2ccccc2Cl)o1 (centres unmarked) [SN00784775] | 0.0
74 | O=C(CN1CCN(Cc2ccccc2)C1=O)NCc1ccc(Cl)cc1 [SN00784814] | 0.0
75 | CC(=O)c1cccc(NS(=O)(=O)c2c(C)n[nH]c2C)c1 [SN00784818] | 5.0
76 | Cc1ccc(NS(=O)(=O)c2c(C)n[nH]c2C)cc1 [SN00784820] | 8.8
77 | Cc1cc(NC(=O)C2CCN(S(=O)(=O)c3c(C)n[nH]c3C)CC2)ccc1Br [SN00784824] | 11.8
78 | CSCCC1COC(c2cccn2C)=N1 (centres unmarked) [SN00784837] | 0.0

Same assay, conditions: 48 h, re-assessment

Row | SMILES | % Inhibition n=2 48h [%]
79 | O=C(NCC1(c2ccccc2)CCOCC1)c1ccc(Br)cc1 [SN00783501] | 14.4
80 | Fc1cccc(Nc2c3c(nc4ccccc24)CCC3)c1 [SN00784170] | 44.9

From article PMC9775191, “A Subset Screen of the Compounds Australia Scaffold Library Identifies 7-Acylaminodibenzoxazepinones as Potent and Selective Hits for Anti-Giardia Drug Discovery” (Biomedicines, 2022)
